The values that follow come from PMC5218480 (PLoS ONE, 2017).

The subject of this assay is MV-4-11 cells. Put plainly: Gene expression microarray analysis (Affymetrix PrimeView) and GSEA. The format is cell-based, human. Further details: RFU PODN (11730768_x_at) / Fold change /veh PODN (11730768_x_at) / RFU LINC00158 (11744669_a_at) / Fold change /veh LINC00158 (11744669_a_at) / RFU DUSP10 (11751237_a_at) / Fold change /veh DUSP10 (11751237_a_at) / RFU ID3 (11757404_x_at) / Fold change /veh ID3 (11757404_x_at) / RFU PLEKHG5 (11737974_s_at) / Fold change /veh PLEKHG5 (11737974_s_at) / RFU LRRC4B (11730491_at) / Fold change /veh LRRC4B (11730491_at) / RFU GIMAP4 (11747438_a_at) / Fold change /veh GIMAP4 (11747438_a_at) / RFU KRT8 (11758183_x_at) / Fold change /veh KRT8 (11758183_x_at) / RFU CNN1 (11734310_a_at) / Fold change /veh CNN1 (11734310_a_at) / RFU VPS37D (11726825_at) / Fold change /veh VPS37D (11726825_at) / RFU C10orf10 (11716522_x_at) / Fold change /veh C10orf10 (11716522_x_at) / RFU KIR2DL2 /// KIR2DL4 /// KIR2DL5A /// KIR2DL5B /// KIR2DS1 /// KIR2DS2 /// KIR2DS3 /// KIR2DS4 /// KIR3DL3 /// KIR3DL3 /// KIR3DS1 (11738374_at) / Fold change /veh KIR2DL2 /// KIR2DL4 /// KIR2DL5A /// KIR2DL5B /// KIR2DS1 /// KIR2DS2 /// KIR2DS3 /// KIR2DS4 /// KIR3DL3 /// KIR3DL3 /// KIR3DS1 (11738374_at) / RFU C1QL1 (11718748_at) / Fold change /veh C1QL1 (11718748_at) / RFU TMPRSS4 (11747572_a_at) / Fold change /veh TMPRSS4 (11747572_a_at) / RFU HAMP (11756126_x_at) / Fold change /veh HAMP (11756126_x_at) / RFU RNFT2 (11725882_a_at) / Fold change /veh RNFT2 (11725882_a_at) / RFU NR4A2 (11747474_a_at) / Fold change /veh NR4A2 (11747474_a_at) / RFU ABCC12 (11746883_a_at) / Fold change /veh ABCC12 (11746883_a_at) / RFU TMEM136 (11760407_x_at) / Fold change /veh TMEM136 (11760407_x_at) / RFU CLDN22 /// WWC2 (11732394_at) / Fold change /veh CLDN22 /// WWC2 (11732394_at) / RFU HLA-DPB1 (11760878_x_at) / Fold change /veh HLA-DPB1 (11760878_x_at) / RFU SPINT1 (11716480_a_at) / Fold change /veh SPINT1 (11716480_a_at) / RFU GAP43 (11754022_s_at) / Fold change /veh GAP43 (11754022_s_at) / RFU A4GNT (11735810_at) / Fold change /veh A4GNT (11735810_at) / RFU PRB3 (11715151_x_at) / Fold change /veh PRB3 (11715151_x_at) / RFU TUBB4B (11761932_at) / Fold change /veh TUBB4B (11761932_at) / RFU CAPN14 (11732068_a_at) / Fold change /veh CAPN14 (11732068_a_at) / RFU TMCC2 (11721928_a_at) / Fold change /veh TMCC2 (11721928_a_at) / RFU IRGQ (11745062_a_at) / Fold change /veh IRGQ (11745062_a_at) / RFU FAM174B (11720279_a_at) / Fold change /veh FAM174B (11720279_a_at) / RFU TMPRSS4 (11748680_a_at) / Fold change /veh TMPRSS4 (11748680_a_at) / RFU FAM212B (11763350_a_at) / Fold change /veh FAM212B (11763350_a_at) / RFU PLEKHG5 (11743358_a_at) / Fold change /veh PLEKHG5 (11743358_a_at) / RFU ZSCAN30 (11745921_a_at) / Fold change /veh ZSCAN30 (11745921_a_at) / RFU CMKLR1 (11741424_a_at) / Fold change /veh CMKLR1 (11741424_a_at) / RFU LOC101060620 /// MAPK8IP1 (11723275_at) / Fold change /veh LOC101060620 /// MAPK8IP1 (11723275_at) / RFU SPTSSB (11747773_x_at) / Fold change /veh SPTSSB (11747773_x_at) / RFU PRSS12 (11739890_at) / Fold change /veh PRSS12 (11739890_at) / RFU BIN1 (11741810_x_at) / Fold change /veh BIN1 (11741810_x_at) / RFU WNT11 (11732464_a_at) / Fold change /veh WNT11 (11732464_a_at) / RFU C10orf10 (11716521_a_at) / Fold change /veh C10orf10 (11716521_a_at) / RFU C5orf56 (11738089_at) / Fold change /veh C5orf56 (11738089_at) / RFU CYB561 (11721691_x_at) / Fold change /veh CYB561 (11721691_x_at) / RFU ANKRD19P (11752326_a_at) / Fold change /veh ANKRD19P (11752326_a_at) / RFU OR2T12 /// OR2T33 /// OR2T8 (11738714_s_at) / Fold change /veh OR2T12 /// OR2T33 /// OR2T8 (11738714_s_at) / RFU VCAN (11748164_a_at) / Fold change /veh VCAN (11748164_a_at) / RFU JSRP1 (11732532_at) / Fold change /veh JSRP1 (11732532_at) / RFU KRTAP10-11 (11738290_x_at) / Fold change /veh KRTAP10-11 (11738290_x_at) / RFU MYO3A (11730013_a_at) / Fold change /veh MYO3A (11730013_a_at) / RFU EBF3 (11725865_a_at) / Fold change /veh EBF3 (11725865_a_at) / RFU CAMK2N1 (11719241_x_at) / Fold change /veh CAMK2N1 (11719241_x_at) / RFU C5orf56 (11738088_a_at) / Fold change /veh C5orf56 (11738088_a_at) / RFU OLFML3 (11715873_a_at) / Fold change /veh OLFML3 (11715873_a_at) / RFU LOC100653217 /// NTM (11731650_a_at) / Fold change /veh LOC100653217 /// NTM (11731650_a_at) / RFU MAPK11 (11762145_a_at) / Fold change /veh MAPK11 (11762145_a_at) / RFU FIZ1 (11724087_x_at) / Fold change /veh FIZ1 (11724087_x_at) / RFU OASL (11726364_x_at) / Fold change /veh OASL (11726364_x_at) / RFU SOX15 (11748057_x_at) / Fold change /veh SOX15 (11748057_x_at) / RFU CD79A (11719716_a_at) / Fold change /veh CD79A (11719716_a_at) / RFU HIST1H1D (11736915_at) / Fold change /veh HIST1H1D (11736915_at) / RFU CASKIN2 (11723855_a_at) / Fold change /veh CASKIN2 (11723855_a_at) / RFU LOC730098 (11760151_x_at) / Fold change /veh LOC730098 (11760151_x_at) / RFU OR4N2 (11742367_at) / Fold change /veh OR4N2 (11742367_at) / RFU PRRT2 (11749266_a_at) / Fold change /veh PRRT2 (11749266_a_at) / RFU SNX32 (11753110_a_at) / Fold change /veh SNX32 (11753110_a_at) / RFU CDHR5 (11726645_a_at) / Fold change /veh CDHR5 (11726645_a_at) / RFU RCAN1 (11760418_a_at) / Fold change /veh RCAN1 (11760418_a_at) / RFU FAM167A (11723789_a_at) / Fold change /veh FAM167A (11723789_a_at) / RFU FAM26E (11764081_at) / Fold change /veh FAM26E (11764081_at) / RFU ISYNA1 (11749810_s_at) / Fold change /veh ISYNA1 (11749810_s_at) / RFU ACY1 (11761880_at) / Fold change /veh ACY1 (11761880_at) / RFU 11764098_at / Fold change /veh 11764098_at / RFU SAMD14 (11745864_x_at) / Fold change /veh SAMD14 (11745864_x_at) / RFU NPB (11741838_a_at) / Fold change /veh NPB (11741838_a_at) / RFU TMPRSS6 (11731388_a_at) / Fold change /veh TMPRSS6 (11731388_a_at) / RFU KRTAP10-2 (11738614_at) / Fold change /veh KRTAP10-2 (11738614_at) / RFU ARHGAP8 /// PRR5-ARHGAP8 (11727945_x_at) / Fold change /veh ARHGAP8 /// PRR5-ARHGAP8 (11727945_x_at) / RFU KRTAP5-7 /// NADSYN1 (11734609_at) / Fold change /veh KRTAP5-7 /// NADSYN1 (11734609_at) / RFU RASL12 (11751679_a_at) / Fold change /veh RASL12 (11751679_a_at) / RFU CDKN2B (11736163_a_at) / Fold change /veh CDKN2B (11736163_a_at) / RFU PRF1 (11729649_at) / Fold change /veh PRF1 (11729649_at) / RFU, ZNF638 /// ZNF638-IT1 / Fold change vs veh, ZNF638 /// ZNF638-IT1 / RFU, PANK3 / Fold change vs veh, PANK3 / RFU, SH3YL1 / Fold change vs veh, SH3YL1 / RFU, ZEB2 / Fold change vs veh, ZEB2 / RFU, NRIP1 / Fold change vs veh, NRIP1 / RFU, PTTG1IP / Fold change vs veh, PTTG1IP / RFU, CAPN2 / Fold change vs veh, CAPN2 / RFU, MED14 / Fold change vs veh, MED14 / RFU, SNORA58 / Fold change vs veh, SNORA58 / RFU, C1orf63 / Fold change vs veh, C1orf63 / RFU, LRRFIP1 / Fold change vs veh, LRRFIP1 / RFU, NDUFAF7 / Fold change vs veh, NDUFAF7 / RFU, SLC12A2 / Fold change vs veh, SLC12A2 / RFU, IBTK / Fold change vs veh, IBTK / RFU, ESF1 / Fold change vs veh, ESF1 / Fold change vs veh, TMEM50B / RFU, TAOK1 / Fold change vs veh, TAOK1 / RFU, ACBD3 / Fold change vs veh, ACBD3 / RFU, TMA16 / Fold change vs veh, TMA16 / RFU, RWDD3 / Fold change vs veh, RWDD3 / RFU, BCAT1 / Fold change vs veh, BCAT1 / RFU, EDEM3 / Fold change vs veh, EDEM3 / RFU, TMEM33 / Fold change vs veh, TMEM33 / RFU, WDR75 / Fold change vs veh, WDR75 / RFU, AHCTF1 / Fold change vs veh, AHCTF1 / RFU, TFRC / Fold change vs veh, TFRC / RFU, ZDHHC17 / Fold change vs veh, ZDHHC17 / RFU, NOM1 / Fold change vs veh, NOM1 / RFU, ARL8B / Fold change vs veh, ARL8B / RFU, ZBTB11 / Fold change vs veh, ZBTB11 / RFU, TAMM41 / Fold change vs veh, TAMM41 / RFU, KIAA1704 /// LOC100996395 / Fold change vs veh, KIAA1704 /// LOC100996395 / RFU, ING1 / Fold change vs veh, ING1 / RFU, TRMT61B / Fold change vs veh, TRMT61B / RFU, FUBP3 / Fold change vs veh, FUBP3 / RFU, TP53 / Fold change vs veh, TP53 / RFU, TNKS2 / Fold change vs veh, TNKS2 / RFU, ZFP14 / Fold change vs veh, ZFP14 / RFU, ACTR2 / Fold change vs veh, ACTR2 / RFU, PPP3R1 / Fold change vs veh, PPP3R1 / RFU, PIK3R1 / Fold change vs veh, PIK3R1 / RFU, HNRNPA1 / Fold change vs veh, HNRNPA1 / RFU, RNF170 / Fold change vs veh, RNF170 / RFU, ZNF28 / Fold change vs veh, ZNF28 / RFU, RNGTT / Fold change vs veh, RNGTT / RFU, OGT / Fold change vs veh, OGT / RFU, BRD1 / Fold change vs veh, BRD1 / RFU, MARS / Fold change vs veh, MARS / RFU, ZNF655 / Fold change vs veh, ZNF655 / RFU, FAHD1 / Fold change vs veh, FAHD1 / RFU, BDP1 / Fold change vs veh, BDP1 / RFU, LRRCC1 / Fold change vs veh, LRRCC1 / RFU, ARID1A / Fold change vs veh, ARID1A / RFU, ZNF146 / Fold change vs veh, ZNF146 / RFU, ZNF330 / Fold change vs veh, ZNF330 / RFU, GPN3 / Fold change vs veh, GPN3 / RFU, C9orf123 / Fold change vs veh, C9orf123 / RFU, N4BP2L2 / Fold change vs veh, N4BP2L2 / RFU, ARFIP1 / Fold change vs veh, ARFIP1 / RFU, FAM179B / Fold change vs veh, FAM179B / RFU, BCL10 / Fold change vs veh, BCL10 / RFU, UHRF1BP1L / Fold change vs veh, UHRF1BP1L / RFU, BET1 / Fold change vs veh, BET1 / RFU, CNOT2 / Fold change vs veh, CNOT2 / RFU, ZNF268 / Fold change vs veh, ZNF268 / Fold change vs veh, ZNF507 / RFU, DGCR2 / Fold change vs veh, DGCR2 / RFU, WDSUB1 / Fold change vs veh, WDSUB1 / Fold change vs veh, HSP90B1 /// MIR3652 / RFU, ADSS / Fold change vs veh, ADSS / RFU, GK / Fold change vs veh, GK / RFU, ZNF148 / Fold change vs veh, ZNF148 / RFU, TAF9 / Fold change vs veh, TAF9 / RFU, SLC1A5 / Fold change vs veh, SLC1A5 / RFU, SLMO2 / Fold change vs veh, SLMO2 / RFU, ABCC4 / Fold change vs veh, ABCC4 / RFU, LOC101060439 /// RAP1B / Fold change vs veh, LOC101060439 /// RAP1B / RFU, RFX7 / Fold change vs veh, RFX7 / RFU, GTPBP10 / Fold change vs veh, GTPBP10 / RFU, CNEP1R1 / Fold change vs veh, CNEP1R1 / RFU, BIVM-ERCC5 /// ERCC5 / Fold change vs veh, BIVM-ERCC5 /// ERCC5 / RFU, ILF3 / Fold change vs veh, ILF3 / RFU 11762660_at / Fold change /veh 11762660_at / RFU VCAN (11757783_s_at) / Fold change /veh VCAN (11757783_s_at) / RFU DDX43 (11728927_at) / Fold change /veh DDX43 (11728927_at) / RFU KRT8 (11758188_x_at) / Fold change /veh KRT8 (11758188_x_at) / RFU NKD1 (11759106_at) / Fold change /veh NKD1 (11759106_at) / RFU SRD5A1 (11742802_a_at) / Fold change /veh SRD5A1 (11742802_a_at) / RFU TPSAB1 /// TPSB2 (11721975_s_at) / Fold change /veh TPSAB1 /// TPSB2 (11721975_s_at) / RFU GSTM3 (11746129_a_at) / Fold change /veh GSTM3 (11746129_a_at) / RFU IL23R (11737362_x_at) / Fold change /veh IL23R (11737362_x_at) / RFU TMEM51 (11727254_a_at) / Fold change /veh TMEM51 (11727254_a_at) / RFU PIWIL2 (11732686_x_at) / Fold change /veh PIWIL2 (11732686_x_at) / RFU ORM1 (11744905_x_at) / Fold change /veh ORM1 (11744905_x_at) / RFU CCDC152 (11743942_at) / Fold change /veh CCDC152 (11743942_at) / RFU ECM1 (11717891_a_at) / Fold change /veh ECM1 (11717891_a_at) / RFU IL23R (11748794_a_at) / Fold change /veh IL23R (11748794_a_at) / RFU TNFAIP8L3 (11732012_x_at) / Fold change /veh TNFAIP8L3 (11732012_x_at) / RFU MBOAT4 (11741988_at) / Fold change /veh MBOAT4 (11741988_at) / RFU 11764193_at / Fold change /veh 11764193_at / RFU TMEM53 (11763286_at) / Fold change /veh TMEM53 (11763286_at) / RFU MAGEB2 (11727129_at) / Fold change /veh MAGEB2 (11727129_at) / RFU TMEM200A (11744735_a_at) / Fold change /veh TMEM200A (11744735_a_at) / RFU CCDC152 (11751479_a_at) / Fold change /veh CCDC152 (11751479_a_at) / RFU FAM211A (11726209_a_at) / Fold change /veh FAM211A (11726209_a_at) / RFU RGS16 (11746705_a_at) / Fold change /veh RGS16 (11746705_a_at) / RFU VCAN (11755009_s_at) / Fold change /veh VCAN (11755009_s_at) / RFU RHOB (11743442_s_at) / Fold change /veh RHOB (11743442_s_at) / RFU RGS16 (11720943_a_at) / Fold change /veh RGS16 (11720943_a_at) / RFU RGS16 (11720944_at) / Fold change /veh RGS16 (11720944_at) / RFU, VPS4B / Fold change vs veh, VPS4B / RFU, CREB1 / Fold change vs veh, CREB1 / RFU, DNAJC13 / Fold change vs veh, DNAJC13 / RFU, GNAQ / Fold change vs veh, GNAQ / RFU, CDK5R1 / Fold change vs veh, CDK5R1 / RFU, ZRANB3 / Fold change vs veh, ZRANB3 / RFU, CUL4A / Fold change vs veh, CUL4A / RFU, CCNY / Fold change vs veh, CCNY / RFU, UFL1 / Fold change vs veh, UFL1 / RFU, COG3 / Fold change vs veh, COG3 / RFU, DIAPH2 / Fold change vs veh, DIAPH2 / RFU, SKA2 / Fold change vs veh, SKA2 / RFU, AFF3 / Fold change vs veh, AFF3 / RFU, LMF1 / Fold change vs veh, LMF1 / RFU, IPO11 / Fold change vs veh, IPO11 / RFU, DFFB / Fold change vs veh, DFFB / RFU, FOXP1 / Fold change vs veh, FOXP1 / RFU, CARD8 / Fold change vs veh, CARD8 / RFU, STRN3 / Fold change vs veh, STRN3 / RFU, ADK / Fold change vs veh, ADK / RFU, RASSF2 / Fold change vs veh, RASSF2 / RFU, WIPF1 / Fold change vs veh, WIPF1 / RFU, LARP1B / Fold change vs veh, LARP1B / RFU, RASA1 / Fold change vs veh, RASA1 / RFU, RB1 / Fold change vs veh, RB1 / RFU, PPFIA1 / Fold change vs veh, PPFIA1 / RFU, MAT2A / Fold change vs veh, MAT2A / RFU, CCT5 / Fold change vs veh, CCT5 / RFU, WDR92 / Fold change vs veh, WDR92 / RFU, CUX1 / Fold change vs veh, CUX1 / RFU, TTC7A / Fold change vs veh, TTC7A / RFU, TMEM135 / Fold change vs veh, TMEM135 / RFU, DEPTOR / Fold change vs veh, DEPTOR / RFU, CPM / Fold change vs veh, CPM / RFU, DNAJB6 / Fold change vs veh, DNAJB6 / RFU, CACNA2D3 / Fold change vs veh, CACNA2D3 / RFU, DTX4 / Fold change vs veh, DTX4 / RFU, TFCP2 / Fold change vs veh, TFCP2 / RFU, GMCL1 /// GMCL1P1 / Fold change vs veh, GMCL1 /// GMCL1P1 / RFU, AEBP2 / Fold change vs veh, AEBP2 / RFU, SNHG1 /// SNORD22 /// SNORD25 /// SNORD26 /// SNORD27 /// SNORD28 /// SNORD29 /// SNORD31 / Fold change vs veh, SNHG1 /// SNORD22 /// SNORD25 /// SNORD26 /// SNORD27 /// SNORD28 /// SNORD29 /// SNORD31 / Fold change (Aza/veh), C12orf56 (ProbeSet 11735607_a_at) / Fold change (ACY-1035/veh), C12orf56 (ProbeSet 11735607_a_at) / Fold change (Aza/veh), FGFR1OP (ProbeSet 11751329_s_at) / Fold change (ACY-1035/veh), FGFR1OP (ProbeSet 11751329_s_at) / Fold change (Aza/veh), VPS36 (ProbeSet 11739960_a_at) / Fold change (ACY-1035/veh), VPS36 (ProbeSet 11739960_a_at) / RFU SYPL1 (11715823_x_at) / Fold change /veh SYPL1 (11715823_x_at) / RFU IGFBP7 (11715501_s_at) / Fold change /veh IGFBP7 (11715501_s_at) / RFU REEP3 (11722064_at) / Fold change /veh REEP3 (11722064_at) / RFU IGLL1 (11728026_x_at) / Fold change /veh IGLL1 (11728026_x_at): dose or concentration left out as unconfirmed. To be noted: ProbeSet 11717308_a_at; LIST B.

Take `Nc1ncn([C@@H]2O[C@H](CO)[C@@H](O)[C@H]2O)c(=O)n1` [azacitidine]: the “RFU, WDR75” value is 348.11 RFU.
